The test system of data set [1] is Trypanosoma brucei rhodesiense. The experiment in a line: Antiprotozoal activity against trypomastigote stage of Trypanosoma brucei rhodesiense STIB900 after 72 hrs by Alamar Blue assay. It is filed as functional, organism-based. To be noted: STIB900, 72 h. For orientation: Resazurin is reduced to fluorescent resorufin, in cell work by metabolically active cells.

The subject of another data set is Trypanosoma cruzi. As to the kind of experiment: Antitrypanosomal activity against Trypanosoma cruzi Tulahuen C4 amastigotes harboring LacZ infected in rat L6 cells after 96 hrs by CPRG/Nonidet reagent based photometric analysis. Type of data set: functional, organism-based. To be noted: Tulahuen C4, L6, 96 h.
A further data set deals with Leishmania donovani. As to the kind of experiment: Antileishmanial activity against Leishmania donovani MHOM/ET/67/L82 axenic amastigotes after 72 hrs by alamar blue staining based fluorescence assay. Type of data set: functional, organism-based. To be noted: MHOM/ET/67/L82, 72 h.
A further data set relates to L6. The experiment in a line: Cytotoxicity against rat L6 cells after 72 hrs by alamar blue assay. To be noted: L6, 72 h. It is filed as cell-based.
Data set [2] is described as follows: Selectivity index, ratio of IC50 for rat L6 cells to IC50 for trypomastigote stage of Trypanosoma brucei rhodesiense STIB900. The conditions noted are these: read-out: Ratio IC50. It is filed as toxicity.
A short description of data set [3]: Selectivity index, ratio of IC50 for rat L6 cells to IC50 for Trypanosoma cruzi Tulahuen C4 amastigotes harboring LacZ infected in rat L6 cells. Type of data set: toxicity, cell-based. To be noted: read-out: Ratio IC50.
Data set [4] in a line: Selectivity index, ratio of IC50 for rat L6 cells to IC50 for Leishmania donovani MHOM/ET/67/L82 axenic amastigotes. It is filed as toxicity. The conditions noted are these: read-out: Ratio IC50.
Data set [5] can be described thus: Selectivity index, ratio of IC50 for rat L6 cells to IC50 for IEF stage of Plasmodium falciparum NF54. Type of data set: toxicity. To be noted: read-out: Ratio IC50.
In another data set the test system is Plasmodium falciparum. As to the kind of experiment: microbe, parasite or virus in culture. To be noted: NF54.

Structures are written as SMILES.

Description for Plasmodium falciparum: Antiplasmodial activity against IEF stage of Plasmodium falciparum NF54 assessed as reduction in [3H]hypoxanthine incorporation preincubated for 48 hrs followed by [3H]hypoxanthine addition measured after 24 hrs by liquid scintillation counting method

`CC(C)C1=C2OC(C)(C)[C@H]3C[C@@]45O[C@]4(C)[C@H](O)C[C@@]4(CC[C@H]6C(C)(C)CCC[C@]67C[C@@]45[C@@]23O7)C1=O`: the concentration for half-maximal inhibition (IC50) in [1] stood at 74.6 µM; in the data set with Trypanosoma cruzi, 19.8 µM; in the data set with Leishmania donovani it was 44.1 µM; with L6, 46.9 µM; with Plasmodium falciparum, 3.6 µM. For the same compound, the selectivity ratio in [2] is 0.6; in data set [3], 2.4; in data set [4] it was 1.1; in data set [5] it was 12.9.
As to `C=CC1=C[C@@H]2[C@H]3C(C)=CO[C@]45O[C@]67CCCC(C)(C)[C@@H]6CC[C@](C1)(C(=O)[C@]3(C(C)C)C4=O)[C@]25C7`, the 50% inhibitory concentration (IC50) was 24.6 µM in data set [1]; 47.9 µM in the data set with Trypanosoma cruzi; 15.6 µM in the data set on Leishmania donovani; 41.6 µM in the data set with L6; 1.9 µM with Plasmodium falciparum. Besides, the selectivity ratio worked out at 1.7 in data set [2], 0.9 in data set [3], 2.7 in data set [4] and 22 in data set [5].
Take `CC1=C2C[C@@H]3C(C)(C)O[C@]45O[C@@]4(C(C)C)C(=O)[C@]4(CC[C@H]6C(C)(C)CCC[C@]67C[C@]24[C@]35O7)CC1=O`: the IC50 turned out to be 30.5 µM in data set [1]; 11.5 µM in the data set with Trypanosoma cruzi; 12.3 µM in the data set on Leishmania donovani; 72.2 µM with L6; 1.3 µM with Plasmodium falciparum. The selectivity ratio in data set [2] was found to be 2.4; in data set [3], 6.3; in data set [4], 5.9; in [5] it was 56.9.
With `CC(C)=C[C@H]1[C@@H]2C(C)=CC[C@]34CC[C@H]5C(C)(C)CCC[C@]56C[C@]23[C@@](O)(O6)C(=O)[C@]1(C(C)C)C4=O`, the IC50 came to 66.9 µM in data set [1]; 35.8 µM in the data set with Trypanosoma cruzi; 21.3 µM in the data set on Leishmania donovani; 47.2 µM in the data set with L6; 1.1 µM in the data set with Plasmodium falciparum. The selectivity ratio in data set [2] was 0.7; in [3], 1.3; in data set [4] it was 2.2; in data set [5], 44.2.
With `CC1=C2[C@H](O)[C@@H]3C(C)(C)OC4=C(C(C)C)C(=O)[C@]5(CC[C@H]6C(C)(C)CCC[C@]67C[C@]25[C@@]43O7)CC1=O`, the IC50 in [1] was found to be 45.3 µM; in the data set with Trypanosoma cruzi, 3.8 µM; in the data set with Leishmania donovani, 7.5 µM; with L6 it was 13.6 µM; in the data set with Plasmodium falciparum it was 7.5 µM. For the same compound, the selectivity ratio in data set [2] came to 0.3; in data set [3], 3.6; in [4], 1.8; in data set [5], 1.8.
As for `CC(=O)[C@@]12C[C@H]3C(C)(C)OC4=C(C(C)C)C(=O)[C@]5(CC[C@H]6C(C)(C)CCC[C@]67C[C@@]51[C@@]43O7)C[C@H]2O`, the IC50 came to 85.8 µM in data set [1]; 33.9 µM in the data set with Trypanosoma cruzi; 12.3 µM in the data set on Leishmania donovani; 41.1 µM with L6; 7.9 µM with Plasmodium falciparum. Further, the selectivity ratio in data set [2] was found to be 0.5; in data set [3], 1.2; in data set [4], 3.3; in data set [5], 5.2.
Turning to `CC1=C2C[C@@H]3C(C)(C)OC4=C(C(C)C)C(=O)[C@]5(CC[C@H]6C(C)(C)CCC[C@]67C[C@]25[C@@]43O7)CC1=O`, the IC50 in data set [1] came to 56 µM; in the data set on Trypanosoma cruzi, 3.5 µM; in the data set on Leishmania donovani, 15.5 µM; with L6, 37.2 µM; in the data set on Plasmodium falciparum it was 0.6 µM. In addition, the selectivity ratio came out at 0.7 in data set [2], 10.7 in data set [3], 2.4 in data set [4] and 62.2 in data set [5].
Compound `C[C@@H]1CC[C@H]2[C@@H](C)C(=O)O[C@@H]3O[C@@]4(C)CC[C@@H]1[C@]32OO4` [ARTEMISININ] yielded an IC50 in the data set on Plasmodium falciparum of 0.008 µM.
In the data set with Trypanosoma cruzi, `O=C(Cn1ccnc1[N+](=O)[O-])NCc1ccccc1` [BENZNIDAZOLE] had an IC50 of 5.1 µM.
`Nc1nc(N)nc(Nc2ccc([As]3SCC(CO)S3)cc2)n1` (configuration not stated) [MELARSOPROL] gave an IC50 in data set [1] of 0.04 µM.
Turning to `CCCCCCCCCCCCCCCCOP(=O)([O-])OCC[N+](C)(C)C` [MILTEFOSINE], it took 0.9 µM to reach half-maximal inhibition in the data set on Leishmania donovani (IC50).

As usually defined, the IC50 is the midpoint of a concentration-inhibition curve. A higher IC50 goes with a need for much substance.

Source of the values: ChEMBL document CHEMBL4382273, “Antiprotozoal Isoprenoids from Salvia hydrangea” (J Nat Prod, 2018).
